The test system of experiment [1] is human non-small cell lung cancer (NSCLC) cells. The conditions noted are these: subcutaneous administration, nude mice; cited from earlier work.
For experiment [2], the system named is GM-DCs or FL-DCs. Kind of experiment: Cytokine production (ELISA) by murine GM-DCs or FL-DCs with Aspergillus conidia. Format: cell-based, mouse. The source says:
(§1) GM-DCs or FL-DCs were obtained from purified CD14+ monocytes from healthy donors or transplanted patients (1 month post-HSCT) cultured in Iscove's modified medium for 7-9 days, in the presence of rGM-CSF (Schering-Plough, Milan, Italy) and rIL-4 (Peprotech, Inalco, Milan, Italy) or FLT3-L (Immunex Corporation, Seattle, Wash.) (Blood. 2004; 103:4232-4239). DC recovery was between 20-30% reduced in cultures from transplanted patients. Murine GM-DCs or FL-DCs were obtained from bone marrow cells for 7-9 days, as described (Blood. 2004; 103:4232-4239). Thymosin alpha 1 and sThymosin alpha 1 were added to the cultures at 20 ng/mL. DCs (>99% CD11c+ consisting of 90-95% CD8-, 5-10% CD8+, and 1-5% B220+ cells) were purified from spleens (spDCs) by magnetic-activated sorting using CD11c MicroBeads and MidiMacs (Miltenyi Biotech). DC populations were further separated into CD8−, CD8+ and B220+ fractions by means of CD8 or B220 MicroBeads (Miltenyi Biotech). DCs were pulsed in serum-free Iscove medium for 24 hours with live unopsonized Aspergillus conidia or Zymosan from Saccharomyces cerevisiae (Sigma) or CpG-ODN 2006 as described.7 Phagocytosis was done as described (Blood. 2004; 103:4232-4239). Photographs were taken using a high Resolution Microscopy Color Camera AxioCam, using the AxioVision Software Rel. 3.1 (Carl Zeiss, Milan, Italy).
(§2) Cytokine content was assessed by enzyme-linked immunosorbent assays (Endogen Human Elisa Kits, R&D Systems and Euroclone, Milan, Italy). AID EliSpot assay kits (Amplimedical, Buttigliera Alta, Turin, Italy) were used on purified splenic CD4+ Tcells cocultured with conidia-pulsed DCs for 5 days to enumerate cytokine-producing cells (Blood. 2003; 102:3807-3814). 1-MT was used at 2 μM.
(B) Cytokine production (ELISA) by GM-DCs or FL-DCs cultured in serum-free medium (1×10^6 cells/mL) with unopsonized Aspergillus conidia (5×10^5/mL) for 24 hours. The IDO inhibitor 1-MT was added at 2 μM. Data are aggregated results from three independent experiments. The detection limits (pg/mL) of the assays were <16 for IL-12p70 and <12 for IL-10.
In general terms: In an ELISA, binding on a coated surface is turned into a signal by an enzyme label.

The next experiment relates to lymphosarcoma cells. Conditions: BALB/c mice; cited from earlier work.
The subject of experiment [3] is GM-DCs or FL-DCs. The experiment can be described thus: Phagocytosis of Aspergillus conidia by human GM- or FL-DCs. In kind it is cell-based.
Text: as §1
(B) Phagocytosis of conidia by GM- or FL-DCs exposed (+) or not (−) to Thymosin alpha 1 from seven recipients of Tcell depleted haploidentical HSCT. The data are the means±SE and expressed as % internalization (numbers within figures). (*) P<0.05, Thymosin alpha 1-treated versus untreated cells.

A further experiment has as its system splenic CD4+ T cells. The experiment can be described thus: Th1/T reg priming in vitro of splenic CD4+ T cells by Aspergillus-pulsed DCs (ELISPOT, flow cytometry). In kind it is cell-based, mouse. As for the experimental part: IDO expression and functional activity were assessed as described in Nat. Immunol. 2002; 3:1097-1101. Generation, purification and activity of T reg cells Splenic CD4+ T-cells were cocultured with conidia-pulsed DCs for 5 days […] before flow cytometry or ELISPOT assay. 1-MT (Sigma-Aldrich) was used at 2 μM. CD4+CD25+ and CD4+CD25− cells (>90% pure on FACS analysis) were separated by magnetic cell sorting from lung and TLN (J. Immunol. 2006; 176:1712-1723). For T reg cell inhibition, 5×10^4 TLN T reg cells were added to 3×10^5 CD4+CD25− cells, both from transplanted mice, stimulated with 3×10^4 autologous Aspergillus conidia-pulsed spDCs or with or 1.5×10^5 allogeneic spDCs from naïve donor mice for five days before H^3-thymidine labeling. Purified peritoneal CD 11b+Gr−1+PMN (>98% pure on FACS analysis) (2×10^6) were exposed to resting conidia in the presence of 4×10^5 CD4+CD25+ for 60 min for oxidant production or 24 hours for cytokine production (J. Immunol. 2006; 176:1712-1723).
as §2
(A) Frequency of IFN-γ-/IL-10-producing splenic CD4+ T cells activated by Aspergillus-pulsed Thymosin alpha 1-treated GM-DCs or FL-DCs. 1-MT was present in selected cultures. Plates were read with the AID-EliSpot Reader System (Amplimedical). Values are means±SE per 10^6 cells of samples from 3-5 experiments, calculated using replicates of serial twofold dilutions of cells. (*) P<0.05, conidia-exposed versus unexposed cells; (**) P<0.05, thymosin-exposed versus unexposed cells.
(B) Phenotypic analysis of CD4+ cells cultured alone (−) or as in (A). Numbers represent the percentage of double positive cells.
For orientation: Flow cytometry measures light scatter and fluorescence of single cells or particles in a stream.

The test system of experiment [4] is GM-DCs or FL-DCs. The experiment can be described thus: Cytokine production and T cell priming by human DCs (ELISA). Format: cell-based.
Text: as §1, §2
(C) Cytokine production (pg/mL by ELISA) by Thymosin alpha 1-induced DCs from healthy donors cultured in serum-free medium (1×10^6 cells/mL) with unopsonized Aspergillus conidia (5×10^5/mL) or 10 μg/mL Zymosan or 2 μg/mL CpG-B ODN 2006 for 24 hours. The data shown are aggregated results from three independent experiments and presented in the mean±SD. […]

The subject of experiment [5] is methylcholanthrene-induced fibrosarcoma. Conditions: mice; cited from earlier work.
The mark [6] stands for this setting: in response to Aspergillus conidia, 24 hours.

No end group written: not given here.

In the case of “Thymosin alpha 1: naturally occurring thymic peptide; supplied as purified, endotoxin-free sterile lyophilized acetylated polypeptide from SciClone Pharmaceuticals (Ac-SDAAVDTSSEITTKDLKEKKEVVEEAEN; UniProt P06454 2-29, looked up)”, the tumor volume result in experiment [1] is reported as “significantly decreased tumor volume”. For the same substance, in the experiment on GM-DCs or FL-DCs [2] (GM-DCs or FL-DCs, in response to Thymosin alpha 1), the “IL-10 production by cells from TLR9-/- or IFN-aβR-/- mice” value is on record as “did not occur”. Further, in the experiment with GM-DCs or FL-DCs [2] (setting [6]), the “release of IL-10 and IL-12 by FL-DCs” value is “IL-10, more than IL-12”; the “release of IL-12 and IL-10 by GM-DCs” value is “induced release of IL-12 and IL-10”. For the same substance, the “local sarcoma growth, liver and lung metastases of lymphosarcoma cells” value in the experiment on lymphosarcoma cells is “significantly reduced”. Moreover, the “phagocytosis of GM- and FL-DCs derived from patients” value in the experiment on GM-DCs or FL-DCs [3] (patients one month after transplantation) is “promoted the phagocytosis”. For the same substance, in the experiment with GM-DCs or FL-DCs [3] (with Thymosin alpha 1 (from 30% without)), the “phagocytosis in GM-DCs” value is 56%. In the experiment on GM-DCs or FL-DCs [3] (with Thymosin alpha 1 (from 32% without)), the “phagocytosis in FL-DCs” value amounted to 58%. Besides, in the experiment with splenic CD4+ T cells (Aspergillus-pulsed FL-DCs, 5 days coculture), the “priming for IL-10-producing cells by FL-DCs” value is listed as “increased priming”. Moreover, the “priming for IFN-γ-/IL-10-producing CD4+ T cells by GM-DCs” value in the experiment on splenic CD4+ T cells (Aspergillus-pulsed GM-DCs, 5 days coculture) is “increased priming”. In addition, in the experiment on splenic CD4+ T cells (cultured with Thymosin alpha 1-induced DCs), the “CD4+CD25+ T cells positive for intracellular Foxp3 and surface CTLA-4” value was “a significant proportion of the CD4+CD25+ T cells stained positive for intracellular Foxp3 and surface CTLA-4”. For the same substance, the “IL-10 production by GM-DCs” value in the experiment on GM-DCs or FL-DCs [4] (healthy donors, Aspergillus conidia, 24 hours) is “produced increased levels of IL-10”. Moreover, the IFN-a production result with GM-DCs or FL-DCs [4] (in response to Aspergillus conidia, Zymosan or CpG ODN) was “mainly produced by FL-DCs or Thymosin alpha 1-treated GM-DCs”. Further, in the experiment with GM-DCs or FL-DCs [4] (in vitro, Thymosin alpha 1-treated GM-DCs), the “priming for IL-10-producing CD4+ T cells” value was “primed for IL-10-producing CD4+ T cells in vitro”. Moreover, the pulmonary metastases entry in experiment [5] is given as “reduced”.
